From PubChem BioAssay (NCI)
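48-hour exposure; five concentrations; linearly interpolated endpoints. TGI denotes the concentration required for complete inhibition of growth.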 Where a SMILES comes first, the peptide text is derived from it. [ ]: non-standard residue; d: D form. The star is where a group is joined. ξ: configuration not given here. ξD = NC(CC(=O)O)C(=O)O; Ac3c = NC1(C(=O)O)CC1; Boc = CC(C)(C)OC(=O)*; OBn = c1ccc(CO*)cc1

Assays:
Assay in all cases: NCI anticancer screen, dose series, 48 h
SNB-19 CNS = system: SNB-19 CNS
MDA-MB-435 = system: MDA-MB-435
ACHN renal = system: ACHN renal
CAKI-1 renal = system: CAKI-1 renal
HCT-116 colon = system: HCT-116 colon
MALME-3M melanoma = system: MALME-3M melanoma
SF-295 CNS = system: SF-295 CNS
UO-31 renal = system: UO-31 renal
SK-MEL-5 melanoma = system: SK-MEL-5 melanoma
NCI-H226 lung = system: NCI-H226 lung
MOLT-4 leukemia = system: MOLT-4 leukemia
RXF 393 renal = system: RXF 393 renal
HOP-92 NSCLC = system: HOP-92 NSCLC
SF-539 CNS = system: SF-539 CNS
OVCAR-8 ovarian = system: OVCAR-8 ovarian
BT-549 breast = system: BT-549 breast
SW-620 colon = system: SW-620 colon
U251 CNS = system: U251 CNS
DU-145 prostate = system: DU-145 prostate
OVCAR-5 ovarian = system: OVCAR-5 ovarian
COLO 205 colon = system: COLO 205 colon
SK-MEL-2 melanoma = system: SK-MEL-2 melanoma
EKVX NSCLC = system: EKVX NSCLC
MDA-MB-231 breast = system: MDA-MB-231 breast
NCI/ADR-RES ovarian = system: NCI/ADR-RES ovarian
K-562 leukemia = system: K-562 leukemia
CCRF-CEM leukemia = system: CCRF-CEM leukemia
UACC-62 melanoma = system: UACC-62 melanoma
HOP-62 NSCLC = system: HOP-62 NSCLC
NCI-H23 lung = system: NCI-H23 lung
OVCAR-4 ovarian = system: OVCAR-4 ovarian
HT29 colon = system: HT29 colon
A498 renal = system: A498 renal
HCT-15 colon = system: HCT-15 colon
IGROV1 ovarian = system: IGROV1 ovarian
HS 578T breast = system: HS 578T breast
OVCAR-3 ovarian = system: OVCAR-3 ovarian
A549 NSCLC = system: A549 NSCLC
SK-OV-3 ovarian = system: SK-OV-3 ovarian
SF-268 CNS = system: SF-268 CNS
SK-MEL-28 melanoma = system: SK-MEL-28 melanoma
NCI-H460 lung = system: NCI-H460 lung
NCI-H522 lung = system: NCI-H522 lung
T-47D breast = system: T-47D breast
LOX IMVI melanoma = system: LOX IMVI melanoma
SN12C renal = system: SN12C renal
MDA-N = system: MDA-N
RPMI-8226 leukemia = system: RPMI-8226 leukemia
TK-10 renal = system: TK-10 renal
PC-3 prostate = system: PC-3 prostate
MCF7 breast = system: MCF7 breast
786-0 renal = system: 786-0 renal
SNB-75 CNS = system: SNB-75 CNS
M14 melanoma = system: M14 melanoma
UACC-257 melanoma = system: UACC-257 melanoma
KM12 colon = system: KM12 colon

COC(=O)C1(NC(=O)C(CC(=O)OCc2ccccc2)NC(=O)OC(C)(C)C)CC1 (stereo unspecified) (Boc-[ξD](OBn)-[Ac3c]-OMe)
TGI (SNB-19 CNS): > 100 µM | TGI (MDA-MB-435): > 100 µM | TGI (ACHN renal): > 100 µM | TGI (CAKI-1 renal): > 100 µM | TGI (HCT-116 colon): > 100 µM | TGI (MALME-3M melanoma): > 100 µM | TGI (SF-295 CNS): > 100 µM | TGI (UO-31 renal): > 100 µM | TGI (SK-MEL-5 melanoma): > 100 µM | TGI (NCI-H226 lung): > 100 µM | TGI (MOLT-4 leukemia): > 100 µM | TGI (RXF 393 renal): > 100 µM | TGI (HOP-92 NSCLC): > 100 µM | TGI (SF-539 CNS): > 100 µM | TGI (OVCAR-8 ovarian): > 100 µM | TGI (BT-549 breast): > 100 µM | TGI (SW-620 colon): > 100 µM | TGI (U251 CNS): > 100 µM | TGI (DU-145 prostate): > 100 µM | TGI (OVCAR-5 ovarian): > 100 µM | TGI (COLO 205 colon): > 100 µM | TGI (SK-MEL-2 melanoma): > 100 µM | TGI (EKVX NSCLC): > 100 µM | TGI (MDA-MB-231 breast): > 100 µM | TGI (NCI/ADR-RES ovarian): > 100 µM | TGI (K-562 leukemia): > 100 µM | TGI (CCRF-CEM leukemia): > 100 µM | TGI (UACC-62 melanoma): 91.7 µM | TGI (HOP-62 NSCLC): > 100 µM | TGI (NCI-H23 lung): > 100 µM | TGI (OVCAR-4 ovarian): > 100 µM | TGI (HT29 colon): > 100 µM | TGI (A498 renal): > 100 µM | TGI (HCT-15 colon): > 100 µM | TGI (IGROV1 ovarian): > 100 µM | TGI (HS 578T breast): > 100 µM | TGI (OVCAR-3 ovarian): > 100 µM | TGI (A549 NSCLC): > 100 µM | TGI (SK-OV-3 ovarian): 77.4 µM | TGI (SF-268 CNS): > 100 µM | TGI (SK-MEL-28 melanoma): > 100 µM | TGI (NCI-H460 lung): > 100 µM | TGI (NCI-H522 lung): > 100 µM | TGI (T-47D breast): > 100 µM | TGI (LOX IMVI melanoma): > 100 µM | TGI (SN12C renal): > 100 µM | TGI (MDA-N): > 100 µM | TGI (RPMI-8226 leukemia): > 100 µM | TGI (TK-10 renal): > 100 µM | TGI (PC-3 prostate): > 100 µM | TGI (MCF7 breast): > 100 µM | TGI (786-0 renal): > 100 µM | TGI (SNB-75 CNS): > 100 µM | TGI (M14 melanoma): > 100 µM | TGI (UACC-257 melanoma): > 100 µM | TGI (KM12 colon): > 100 µM
